According to patent US8624034B2, “Fluoro-pyridinone derivatives useful as antibacterial agents” (Pfizer Inc., priority 2011, dated 2014):
Converted amounts (≈) assume the structure as drawn.

Columns and labels:
[1] = tested on: Escherichia coli EC-1: VOGEL, mouse virulent; assay: MIC determination, EC-1; format: cell-based; conditions: Escherichia coli, read-out: EC-1 (MIC), Table 3, lower of duplicate values
In short: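 MIC against mouse-virulent E. coli EC-1 (VOGEL) was determined by CLSI M7-A8 broth dilution with 2-fold drug increments and overnight incubation. The MIC is the lowest concentration with no visible growth versus drug-free control. Tests were run in duplicate and the lower value reported if within 2-fold, with QC organisms and reference drugs in each run.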

[2] = tested on: Acinetobacter baumannii/haemolyticus, multidrug-resistant clinical isolate (AB-3167); assay: MIC determination, AB-3167; format: cell-based; conditions: Table 3, lower of duplicate values
In short: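 Broth dilution MIC per CLSI M7-A8, 2-fold drug series, overnight incubation, lowest concentration visibly inhibiting growth against drug-free control. Run in duplicate, lower value reported; duplicates differing >2-fold repeated; QC strains and reference compounds required in range.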

[3] = tested on: PA:UC12120; assay: MIC determination, PA:UC12120 (Table 3); format: cell-based, Pseudomonas aeruginosa; conditions: Pseudomonas aeruginosa, UC12120, Table 3, lower of duplicate values
In short: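 CLSI broth dilution MIC with 2-fold concentration steps, overnight incubation; MIC is the lowest concentration visibly inhibiting growth versus drug-free control. Run in duplicate, lower value reported when within 2-fold; control organisms and reference compounds required within defined ranges.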

[4] = biological target: T1, Pseudomonas aeruginosa LpxC enzyme (Pseudomonas aeruginosa, UniProt P47205); assay: IC50 assay, LpxC enzyme from P. aeruginosa (PA LpxC enzyme IC50); format: biochemical; conditions: Table 3; LpxC enzyme 0.1 nM, 25° C., 1 hour; read-out: PA:IC50
T1 construct: made in house; host or cells: E. coli
T1 sequence (P47205 1-303): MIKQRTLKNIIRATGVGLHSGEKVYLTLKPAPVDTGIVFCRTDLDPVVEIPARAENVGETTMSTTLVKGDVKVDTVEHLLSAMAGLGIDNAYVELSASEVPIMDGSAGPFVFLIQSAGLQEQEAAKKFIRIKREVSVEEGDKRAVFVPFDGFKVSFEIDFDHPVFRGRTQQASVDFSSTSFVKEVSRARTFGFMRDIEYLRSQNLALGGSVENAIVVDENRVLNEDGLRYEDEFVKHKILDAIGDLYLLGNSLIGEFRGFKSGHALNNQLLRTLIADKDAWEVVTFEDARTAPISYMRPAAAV
In short: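 The LpxC reaction ran 1 hour and was stopped with HCl. Substrate-to-product conversion was measured by RapidFire mass spectrometry, and IC50 values were calculated from percent conversion relative to a no-enzyme control.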

For `COCc1cccc(-c2cc(=O)n(CCC(C)(C(=O)NO)S(C)(=O)=O)cc2F)c1` (centres unmarked) [Example 93, 4-{5-fluoro-4-[3-(methoxymethyl)phenyl]-2-oxopyridin-1(2H)-yl}-N-hydroxy-2-methyl-2-(methylsulfonyl)butanamide], the MIC [1] was 32 µg/mL (≈ 75 µM), the MIC [2] was greater than 64 µg/mL and the MIC [3] was 8 µg/mL (≈ 18.8 µM). For the same compound, the IC50 [4] was 14.2 nM.

`CC(CCn1cc(F)c(-c2ccc3c(c2)CNC3=O)cc1=O)(C(=O)NO)S(C)(=O)=O` (centres unmarked) [Example 108, 4-[5-fluoro-2-oxo-4-(1-oxo-2,3-dihydro-1H-isoindol-5-yl)pyridin-1(2H)-yl]-N-hydroxy-2-methyl-2-(methylsulfonyl)butanamide] showed an MIC [1] greater than 64 µg/mL, an MIC [2] greater than 64 µg/mL and an MIC [3] greater than 64 µg/mL. For the same compound, the IC50 [4] was 7.2 nM.

Compound `CN(C)Cc1ccc(-c2cc(=O)n(CCC(C)(C(=O)NO)S(C)(=O)=O)cc2F)cc1` (centres unmarked) [Example 79, 4-[4-{4-[(dimethylamino)methyl]phenyl}-5-fluoro-2-oxopyridin-1(2H)-yl]-N-hydroxy-2-methyl-2-(methylsulfonyl)butanamide] has an MIC [1] greater than 64 µg/mL, an MIC [2] greater than 64 µg/mL and an MIC [3] of 16 µg/mL (≈ 36.4 µM). For the same compound, the IC50 [4] was 35.9 nM.

With `CC(CCn1cc(F)c(-c2cncc(F)c2)cc1=O)(C(=O)NO)S(C)(=O)=O` (centres unmarked) [Example 55, 4-(5,5′-difluoro-2′-oxo-3,4′-bipyridin-1′(2′H)-yl)-N-hydroxy-2-methyl-2-(methylsulfonyl)butanamide] the MIC [1] was greater than 64 µg/mL, the MIC [2] was greater than 64 µg/mL and the MIC [3] was 64 µg/mL (≈ 159 µM). The IC50 [4] was 66.8 nM.

With `CC(CCn1cc(F)c(-c2cccc(F)c2F)cc1=O)(C(=O)NO)S(C)(=O)=O` (centres unmarked) [Example 117, 4-[4-(2,3-difluorophenyl)-5-fluoro-2-oxopyridin-1(2H)-yl]-N-hydroxy-2-methyl-2-(methylsulfonyl)butanamide] the MIC [1] was 2 µg/mL (≈ 4.78 µM), the MIC [2] was greater than 64 µg/mL and the MIC [3] was 0.5 µg/mL (≈ 1.2 µM). The IC50 [4] was 0.8 nM.

With `COCc1ccccc1-c1cc(=O)n(CCC(C)(C(=O)NO)S(C)(=O)=O)cc1F` (centres unmarked) [Example 110, 4-{5-fluoro-4-[2-(methoxymethyl)phenyl]-2-oxopyridin-1(2H)-yl}-N-hydroxy-2-methyl-2-(methylsulfonyl)butanamide] the MIC [1] was greater than 64 µg/mL, the MIC [2] was greater than 64 µg/mL and the MIC [3] was greater than 64 µg/mL. It also gave an IC50 [4] greater than 100 nM.

With `CC(CCn1cc(F)c(-c2ccc(Cl)c(C#N)c2)cc1=O)(C(=O)NO)S(C)(=O)=O` (centres unmarked) [Example 102, 4-[4-(4-chloro-3-cyanophenyl)-5-fluoro-2-oxopyridin-1(2H)-yl]-N-hydroxy-2-methyl-2-(methylsulfonyl)butanamide] the MIC [1] was 4 µg/mL (≈ 9.05 µM), the MIC [2] was greater than 64 µg/mL and the MIC [3] was 4 µg/mL (≈ 9.05 µM). For the same compound, the IC50 [4] was 2.1 nM.

Work on `CC(CCn1cc(F)c(-c2ccc(CCC#N)cc2)cc1=O)(C(=O)NO)S(C)(=O)=O` (centres unmarked) [Example 77, 4-{4-[4-(2-cyanoethyl)phenyl]-5-fluoro-2-oxopyridin-1(2H)-yl}-N-hydroxy-2-methyl-2-(methylsulfonyl)butanamide] yielded an MIC [1] of 32 µg/mL (≈ 73.5 µM), an MIC [2] greater than 64 µg/mL and an MIC [3] of 4 µg/mL (≈ 9.19 µM). The IC50 [4] was 2.6 nM.

Work on `COc1cccc(-c2cc(=O)n(CCC(C)(C(=O)NO)S(C)(=O)=O)cc2F)c1F` (centres unmarked) [Example 118, 4-[5-fluoro-4-(2-fluoro-3-methoxyphenyl)-2-oxopyridin-1(2H)-yl]-N-hydroxy-2-methyl-2-(methylsulfonyl)butanamide] yielded an MIC [1] of 1 µg/mL (≈ 2.32 µM), an MIC [2] greater than 64 µg/mL and an MIC [3] of 1 µg/mL (≈ 2.32 µM). The IC50 [4] was 0.7 nM.

With `COC(C)c1ccc(-c2cc(=O)n(CCC(C)(C(=O)NO)S(C)(=O)=O)cc2F)cc1` (centres unmarked) [Example 88, 4-{5-fluoro-4-[4-(1-methoxyethyl)phenyl]-2-oxopyridin-1(2H)-yl}-N-hydroxy-2-methyl-2-(methylsulfonyl)butanamide] the MIC [1] was 16 µg/mL (≈ 36.3 µM), the MIC [2] was greater than 64 µg/mL and the MIC [3] was 4 µg/mL (≈ 9.08 µM). The IC50 [4] was 7.6 nM.

With `COc1ccc(-c2cc(=O)n(CCC(C)(C(=O)NO)S(C)(=O)=O)cc2F)cn1` (centres unmarked) [Example 89, 4-(5′-fluoro-6-methoxy-2′-oxo-3,4′-bipyridin-1′(2′H)-yl)-N-hydroxy-2-methyl-2-(methylsulfonyl)butanamide] the MIC [1] was 8 µg/mL (≈ 19.4 µM), the MIC [2] was greater than 64 µg/mL and the MIC [3] was 2 µg/mL (≈ 4.84 µM). The IC50 [4] was 3.1 nM.

`COc1cc(C)cc(-c2cc(=O)n(CCC(C)(C(=O)NO)S(C)(=O)=O)cc2F)c1F` (centres unmarked) [Example 111, 4-[5-fluoro-4-(2-fluoro-3-methoxy-5-methylphenyl)-2-oxopyridin-1(2H)-yl]-N-hydroxy-2-methyl-2-(methylsulfonyl)butanamide] was tested, and the MIC [1] was 4 µg/mL (≈ 9 µM), the MIC [2] was greater than 64 µg/mL and the MIC [3] was 4 µg/mL (≈ 9 µM). The IC50 [4] was 3 nM.

In the case of `COc1ccc(-c2cc(=O)n(CCC(C)(C(=O)NO)S(C)(=O)=O)cc2F)cc1OC` (centres unmarked) [Example 98, 4-[4-(3,4-dimethoxyphenyl)-5-fluoro-2-oxopyridin-1(2H)-yl]-N-hydroxy-2-methyl-2-(methylsulfonyl)butanamide], the MIC [1] is reported as 64 µg/mL (≈ 145 µM), the MIC [2] is reported as greater than 64 µg/mL and the MIC [3] is reported as 32 µg/mL (≈ 72.3 µM). The IC50 [4] was 28.5 nM.

Compound `CNC(=O)c1ccc(-c2cc(=O)n(CCC(C)(C(=O)NO)S(C)(=O)=O)cc2F)cc1F` (centres unmarked) [Example 52, 2-fluoro-4-{5-fluoro-1-[4-(hydroxyamino)-3-methyl-3-(methylsulfonyl)-4-oxobutyl]-2-oxo-1,2-dihydropyridin-4-yl}-N-methylbenzamide] has an MIC [1] of 64 µg/mL (≈ 140 µM), an MIC [2] greater than 64 µg/mL and an MIC [3] of 32 µg/mL (≈ 70 µM). The IC50 [4] was 2.2 nM.

`COc1ncccc1-c1cc(=O)n(CCC(C)(C(=O)NO)S(C)(=O)=O)cc1F` (centres unmarked) [Example 69, 4-(5′-fluoro-2-methoxy-2′-oxo-3,4′-bipyridin-1′(2′H)-yl)-N-hydroxy-2-methyl-2-(methylsulfonyl)butanamide] showed an MIC [1] of 64 µg/mL (≈ 155 µM), an MIC [2] greater than 64 µg/mL and an MIC [3] of 8 µg/mL (≈ 19.4 µM). It also gave an IC50 [4] of 16.6 nM.

`COc1cc(C#N)ccc1-c1cc(=O)n(CCC(C)(C(=O)NO)S(C)(=O)=O)cc1F` (centres unmarked) [Example 101, 4-[4-(4-cyano-2-methoxyphenyl)-5-fluoro-2-oxopyridin-1(2H)-yl]-N-hydroxy-2-methyl-2-(methylsulfonyl)butanamide] showed an MIC [1] of 64 µg/mL (≈ 146 µM), an MIC [2] greater than 64 µg/mL and an MIC [3] of 8 µg/mL (≈ 18.3 µM). For the same compound, the IC50 [4] was 5.2 nM.

`CC(CCn1cc(F)c(-c2cc(F)cc(Cl)c2)cc1=O)(C(=O)NO)S(C)(=O)=O` (centres unmarked) [Example 56, 4-[4-(3-chloro-5-fluorophenyl)-5-fluoro-2-oxopyridin-1(2H)-yl]-N-hydroxy-2-methyl-2-(methylsulfonyl)butanamide] gave an MIC [1] of 8 µg/mL (≈ 18.4 µM), an MIC [2] greater than 64 µg/mL and an MIC [3] of 2 µg/mL (≈ 4.6 µM). It also gave an IC50 [4] of 2 nM.

With `CC(CCn1cc(F)c(-c2ccccc2C#N)cc1=O)(C(=O)NO)S(C)(=O)=O` (centres unmarked) [Example 94, 4-[4-(2-cyanophenyl)-5-fluoro-2-oxopyridin-1(2H)-yl]-N-hydroxy-2-methyl-2-(methylsulfonyl)butanamide] the MIC [1] was 8 µg/mL (≈ 19.6 µM), the MIC [2] was 32 µg/mL (≈ 78.5 µM) and the MIC [3] was 32 µg/mL (≈ 78.5 µM). For the same compound, the IC50 [4] was 32.3 nM.

`CC(CCn1cc(F)c(-c2ccc(F)cc2)cc1=O)(C(=O)NO)S(C)(=O)=O` (centres unmarked) [Example 86, 4-[5-fluoro-4-(4-fluorophenyl)-2-oxopyridin-1(2H)-yl]-N-hydroxy-2-methyl-2-(methylsulfonyl)butanamide] was tested, and the MIC [1] was 4 µg/mL (≈ 9.99 µM), the MIC [2] was greater than 64 µg/mL and the MIC [3] was 1 µg/mL (≈ 2.5 µM). For the same compound, the IC50 [4] was 1.7 nM.

Work on `Cc1ccc2ccc(-c3cc(=O)n(CCC(C)(C(=O)NO)S(C)(=O)=O)cc3F)cc2n1` (centres unmarked) [Example 96, 4-[5-fluoro-4-(2-methylquinolin-7-yl)-2-oxopyridin-1(2H)-yl]-N-hydroxy-2-methyl-2-(methylsulfonyl)butanamide] yielded an MIC [1] of 16 µg/mL (≈ 35.8 µM), an MIC [2] greater than 64 µg/mL and an MIC [3] of 32 µg/mL (≈ 71.5 µM). For the same compound, the IC50 [4] was 10.8 nM.
